These results are taken from PubChem BioAssay (NCI).

In general, TGI refers to the concentration giving total growth inhibition. A low value points to more potent growth arrest.

Holding throughout (assay): DTP human tumour cell line panel, 48 h
The test system of experiment [1] is CCRF-CEM leukemia.
Experiment [2] concerns EKVX NSCLC.
For experiment [3], the system named is HCT-15 colon.
Experiment [4] has as its system HL-60(TB) leukemia.
For experiment [5], the system named is HS 578T breast.
Experiment [6] relates to IGROV1 ovarian.
For experiment [7], the system named is K-562 leukemia.
Experiment [8] has as its system KM12 colon.
Experiment [9] has as its system MALME-3M melanoma.
Experiment [10] deals with MDA-MB-231 breast.
The subject of experiment [11] is NCI-H226 lung.
The test system of experiment [12] is OVCAR-5 ovarian.
Experiment [13] has as its system OVCAR-8 ovarian.
Experiment [14] deals with RXF 393 renal.
For experiment [15], the system named is SF-295 CNS.
For experiment [16], the system named is SF-539 CNS.
In experiment [17] the test system is SK-OV-3 ovarian.
Experiment [18] relates to U251 CNS.
In experiment [19] the test system is HCC-2998 colon.

Molecules are shown by their SMILES.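 Each compound was tested at five concentrations against cells in 96-well plates for 48 hours. TGI: concentration producing complete growth inhibition.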

For the compound `CCCC(=O)Nc1cc(/C=C/C(=O)N2CC(CCl)c3c2cc(OCc2ccccc2)c2[nH]cc(C)c32)n(C)c1` (centres undefined), the TGI in experiment [1] was 0.244 µM; in experiment [2], 0.635 µM; in [3] it was 0.93 µM; in experiment [4], 0.26 µM; in experiment [5], 0.468 µM; in experiment [6], more than 25 µM. Further, the TGI in experiment [7] was 0.904 µM; in experiment [8] it was 0.602 µM; in experiment [9], 0.353 µM; in experiment [10], more than 25 µM; in experiment [11] it was 0.941 µM; in experiment [12] it was 1.22 µM. For the same compound, the TGI in experiment [13] is 0.202 µM; in [14], 0.0852 µM; in [15], 0.334 µM; in experiment [16], 0.165 µM; in experiment [17] it was more than 25 µM; in experiment [18] it was more than 9.21 µM.

On to `O=C(NC(=S)Nc1ccc2c(c1)Sc1ccccc1O2)c1ccc([N+](=O)[O-])cc1`, for which the TGI in experiment [1], in experiment [2], in experiment [3], in experiment [4], in [5] and in experiment [6] was more than 100 µM throughout. In addition, the TGI in experiment [7], in experiment [8], in [9], in experiment [10], in experiment [11] and in experiment [12] was more than 100 µM each time. For the same compound, the TGI in experiment [13], in experiment [14], in experiment [15], in [16], in experiment [17] and in experiment [18] was more than 100 µM each time.

`CCN(CC)Cc1cc(Nc2c3ccccc3nc3c2[nH]c2ccccc23)cc(CN(CC)CC)c1O`: the TGI in experiment [2] is 3.12 µM; in experiment [19], 2.27 µM; in experiment [3], 3.4 µM; in experiment [4], more than 100 µM; in [5], 4.71 µM; in experiment [6] it was 3.29 µM. The TGI in experiment [7] was more than 100 µM; in experiment [8], 10.6 µM; in [10], 2.62 µM; in experiment [11] it was 6.01 µM; in experiment [12], 9.21 µM; in experiment [13] it was 2.89 µM. Moreover, the TGI came to 1.25 µM in [14]; 2.88 µM in experiment [15]; 2.29 µM in [16]; 17 µM in experiment [17]; 2.19 µM in experiment [18].

For `CC1(C)CC(=O)C(/C=N/C(N)=S)=C(O)C1`, the TGI in experiment [1], in experiment [2], in experiment [19], in experiment [3], in experiment [4] and in [5] was more than 100 µM in each case. The TGI in experiment [6], in experiment [8], in experiment [10], in experiment [11], in [12] and in [13] was more than 100 µM in each case. Further, the TGI in experiment [14], in experiment [15], in experiment [16], in experiment [17] and in experiment [18] was more than 100 µM throughout.

As for `CCCCCC1CC=CC(=O)O1` (centres undefined), the TGI was 19.7 µM in experiment [1]; 20.6 µM in [2]; 21.9 µM in experiment [3]; more than 100 µM in experiment [4]; 88.5 µM in experiment [5]; 17.7 µM in experiment [6]. The TGI was 42.7 µM in experiment [7]; 20.5 µM in experiment [8]; 20.2 µM in [9]; 24.1 µM in [10]; 21.4 µM in experiment [12]; 22.2 µM in experiment [13]. Besides, the TGI in experiment [14] amounted to 23.1 µM; in [15] it was 35.6 µM; in experiment [16], 3.83 µM; in [17] it was 36.9 µM; in experiment [18] it was 17.2 µM.

On to `Cc1ccc2c(=O)cc(Cc3cccs3)[nH]c2n1`, for which the TGI in [1], in [2], in experiment [3], in [4], in [5] and in experiment [6] was more than 100 µM each time. Besides, the total growth inhibition concentration (TGI) in experiment [7], in experiment [8], in experiment [9], in experiment [10], in [11] and in [12] was more than 100 µM each time. Also, the TGI in experiment [13], in experiment [14], in experiment [15], in experiment [17] and in [18] was more than 100 µM each time.

For `C=C1CC2CCCC12C=O` (centres undefined), the total growth inhibition concentration (TGI) in experiment [1], in experiment [19], in experiment [3], in experiment [4], in experiment [5] and in experiment [6] was more than 10 µM in each case. Further, the TGI in experiment [7], in [8], in experiment [9], in experiment [10], in experiment [13] and in experiment [15] was more than 10 µM in each case. Also, the TGI in [16], in experiment [17] and in experiment [18] was more than 10 µM throughout.

Consider `c1ccc2c(c1)NCCC(=NC1CCCCC1)N2`, for which the TGI in experiment [1], in experiment [2], in experiment [3], in experiment [4], in [5] and in experiment [6] was more than 100 µM each time. Moreover, the total growth inhibition concentration (TGI) in experiment [7], in experiment [8], in experiment [9], in experiment [10], in experiment [11] and in experiment [12] was more than 100 µM throughout. Also, the TGI in experiment [13], in experiment [14], in experiment [15], in [17] and in experiment [18] was more than 100 µM each time.

For `N#C[C@H](C(=O)c1ccccc1F)c1nc2ccccc2s1`, the total growth inhibition concentration (TGI) was 73.9 µM in [1]; more than 100 µM in experiment [2]; more than 100 µM in experiment [3]; 79.2 µM in experiment [4]; more than 100 µM in [5]; more than 100 µM in experiment [6]. Also, the TGI in [7] was more than 100 µM; in experiment [8] it was 38.6 µM; in experiment [9] it was 56.2 µM; in experiment [10], more than 100 µM; in experiment [11] it was more than 100 µM; in experiment [12], more than 100 µM. Moreover, the TGI in [13] is more than 100 µM; in [14], more than 100 µM; in [15] it was 77.2 µM; in experiment [16], 59.8 µM; in experiment [17], more than 100 µM; in [18] it was more than 100 µM.

With `COc1cc2nc(Nc3cccc(Br)c3)nc(Nc3cccc(Br)c3)c2cc1OC`, the TGI is 46.5 µM in experiment [1]; 39.8 µM in experiment [2]; 44.6 µM in experiment [19]; 33.3 µM in experiment [3]; 38.5 µM in experiment [5]; 30.1 µM in experiment [6]. In addition, the TGI in experiment [7] is 62.2 µM; in experiment [8], 36.7 µM; in [9], 34.7 µM; in [10] it was 39.7 µM; in experiment [12] it was 70.9 µM; in [13], 31.6 µM. The TGI in experiment [14] amounted to 33.7 µM; in experiment [15], 32.7 µM; in experiment [17] it was 34.4 µM; in experiment [18], 35.7 µM.

Take `CC(=O)C1C(=O)C(=O)N(c2ccccc2)C1=O` (centres undefined): the TGI in experiment [1], in experiment [2], in experiment [19], in experiment [3], in [4] and in experiment [5] was more than 100 µM in each case. Also, the TGI in [6], in [8], in [10], in experiment [11], in experiment [12] and in experiment [13] was more than 100 µM in each case. The TGI in experiment [14], in experiment [15], in [16], in experiment [17] and in experiment [18] was more than 100 µM throughout.

Consider `O=P1(Oc2ccccc2)N=P(c2ccccc2)(c2ccccc2)C=C(c2ccc(Cl)cc2)N1` (centres undefined), for which the TGI worked out at 26.6 µM in experiment [1]; 21.6 µM in experiment [2]; 21.9 µM in [3]; 20.5 µM in [4]; 43.5 µM in experiment [5]; 26.5 µM in [6]. Also, the TGI in [7] was 22.2 µM; in [8], 25.1 µM; in [9] it was 29.6 µM; in [10], 32.1 µM; in experiment [12] it was 28.2 µM; in experiment [13], 29.8 µM. In addition, the TGI in [15] was determined as 19.8 µM; in experiment [16] it was 28.9 µM; in [17], 26 µM; in [18], 18.8 µM.

Consider `N#Cc1cnc(-n2[nH]c3c(c2=O)CCCC3)[nH]c1=O`, for which the TGI in experiment [1], in [2], in experiment [3], in [4], in [5] and in [6] was more than 100 µM each time. Also, the TGI in [7], in experiment [8], in experiment [9], in experiment [10], in experiment [11] and in [12] was more than 100 µM throughout. Besides, the concentration for total growth inhibition (TGI) in experiment [14], in experiment [15], in experiment [16], in experiment [17] and in [18] was more than 100 µM each time.

Take `O=Cc1c2n(c3ccccc13)N[C@@](Cc1ccc(O)cc1)(C(=O)O)C2`: the TGI in experiment [1], in [2], in experiment [3], in [4], in [5] and in experiment [6] was more than 100 µM in each case. Besides, the TGI in experiment [7], in experiment [8], in [9], in experiment [10], in experiment [11] and in experiment [12] was more than 100 µM each time. Further, the TGI in [13], in [15], in [16], in [17] and in experiment [18] was more than 100 µM each time.

As to `COc1cc(=O)c2c(O)c3c(O)oc(C)cc3c(OC)c2c1`, the TGI is 52.6 µM in experiment [1]; 63.8 µM in experiment [2]; 86.8 µM in [3]; more than 100 µM in experiment [4]; more than 100 µM in [5]; 70.2 µM in [6]. The TGI in experiment [7] was 51.7 µM; in [8], 65.8 µM; in experiment [9], 47 µM; in experiment [10], 62.5 µM; in experiment [12] it was 86.6 µM; in experiment [13], 72 µM. Further, the TGI in experiment [14] is more than 100 µM; in [15], 72.7 µM; in [16], 53.8 µM; in experiment [17] it was 71.2 µM; in [18] it was more than 100 µM.

Take `COc1ccc(NC(=S)N/N=C\c2ccc(NC(C)=O)cc2)cc1`: the TGI in [1], in [2], in [19], in experiment [4], in [5] and in experiment [6] was more than 100 µM in each case. Besides, the TGI in experiment [8], in experiment [9], in experiment [10], in [12], in experiment [15] and in [17] was more than 100 µM throughout. Further, the TGI in [18] is more than 100 µM.

With `C1=NCCN2CCN(CCN=Cc3ccccc3OCc3cccc(n3)COc3ccccc31)CC2`, the TGI in experiment [1] is more than 50 µM; in experiment [2] it was more than 50 µM; in experiment [3] it was 21.4 µM; in experiment [4], 22.6 µM; in experiment [5], 4.43 µM; in experiment [6] it was 37.2 µM. The TGI in experiment [7] was more than 50 µM; in [8] it was 26.2 µM; in experiment [9], 32.4 µM; in experiment [10], 34 µM; in [12] it was 28.3 µM; in [13], 35.5 µM. The concentration for total growth inhibition (TGI) is 4.68 µM in experiment [14]; 14.1 µM in [15]; 14.1 µM in [16]; more than 50 µM in experiment [17]; 10.2 µM in [18].
